Measured values taken from patent US11918589B2, “Medicament for treatment of multiple sclerosis” (NIPPON CHEMIPHAR CO., LTD., priority 2016, dated 2024).

How the values were obtained:
EAE model animals = conditions: reported in the literature; cited from earlier work
EAE model rats [1] = assay: Preventive continuous administration into the subarachnoid cavity of EAE model rats, pain threshold; assay type: in vivo, rat; conditions: preventive continuous administration into the subarachnoid cavity 10 nmol/5 μL/hr for about 14 days, FIG. 5
Experimental: A polystyrene catheter having an external diameter of 0.30 mm was detained in the subarachnoid cavity in each of 10 weeks old LEW/CrlCrlj female rats. After about one week from the detainment of the catheter for administration in the subarachnoid cavity, EAE model rats were prepared by the same method as that of Example 2.

EAE model rats [2] = assay: Preventive repetitive oral administration to EAE model rats, pain threshold (von Frey, up-down method), symptoms (EAE score), weight; assay type: in vivo, rat; conditions: orally twice a day 10 mg/kg over 22 days from Day 0, von Frey 50% pain threshold, FIG. 3
Experimental: (§1) EAE model rats were prepared by the same method as that of Example 2. […] For symptom observation, behaviors of the animals allowed to freely act were scored in accordance with the criteria shown in Table 111. The pain threshold was measured after the animals were put into a cage for measurement of which floor is made of a wire gauze, and acclimatized in the environment for 20 minutes or longer. The measurement of the pain threshold was performed according to the method of Chaplan et al. using 7 of von Frey filaments giving different stimulation intensities, and the 50% pain threshold was calculated by the up-down method of Dixon.

EAE model rats [3] = assay: Therapeutic repetitive oral administration to EAE model rats, pain threshold; assay type: in vivo, rat; conditions: orally twice a day 10 mg/kg over 21 days from Day 10 (average EAE score 2 or larger), FIG. 4
Experimental: as §1
EAE model rats were prepared by the same method as that of Example 2.

Structure (SMILES): CN1CC[C@]23c4c5ccc(O)c4O[C@H]2[C@@H](O)C=C[C@H]3[C@H]1C5 [morphine]
- analgesic action in allodynia observed in the EAE model (EAE model animals): markedly decreases

Structure (SMILES): O=C1CC(=O)N(c2cccc(-c3nnn[nH]3)c2)c2ccc3ccccc3c2N1.[Na] [compound B, 5-[3-(1H-tetrazol-5-yl)phenyl]-1H-naphtho[1,2-b][1,4]diazepine-2,4(3H,5H)-dione sodium salt]
- influence on the pain threshold (mechanical allodynia induced by EAE) (EAE model rats [1]): suppressed mechanical allodynia induced by EAE

Structure (SMILES): O=C1CC(=O)N(c2ccc(NC(=O)c3ccccc3I)cc2)c2ccc3ccccc3c2N1 [compound A, 5-[4-(2-iodobenzoyl)aminophenyl]-1H-naphtho[1,2-b][1,4]diazepine-2,4(3H,5H)-dione]
- influence on the pain threshold (mechanical allodynia induced by EAE) (EAE model rats [2]): continuously suppressed mechanical allodynia induced by EAE
- influence on the pain threshold (mechanical allodynia induced by EAE) (EAE model rats [3]): suppressed mechanical allodynia induced by EAE
